Measurements published in patent publication US9890138B2, “Diaminopyrimidine derivatives and processes for the preparation thereof” (YUHAN CORPORATION, priority 2011, dated 2018).
Structures can show the parent of a compound that is named as a salt.

Target: T1, human 5-HT4(a) (Homo sapiens, UniProt Q13639)
T1 construct: host or cells: GeneBlAzer HTR4-CRE-bla CHO-K1 cells
Assay: Evaluation of agonistic activity in CHO-K1 cells expressing human 5-HT4(a) (GeneBlAzer HTR4-CRE-bla CHO-K1, beta-lactamase reporter)
Type: cell-based
Conditions: CHO-K1 cells stably expressing human 5-HT4(a)
Protocol: Test Example 1: Evaluation of Agonistic Activity in CHO-K1 Cells Expressing Human 5-HT4(a)
As CHO-K1 cells stably expressing human 5-HT4(a), we used the GeneBlAzer HTR4-CRE-bla CHO-K1 cells (Invitrogen Corp.). The cells were cultured, under the condition of 37[…] and 5% CO2, in a DMEM supplemented with 10% fetal bovine serum (FBS), 25 mM HEPES (pH7.4), 600 μg/ml hygromycin B, 0.1 mM non-essential amino acids, 100 unit/ml penicillin and 100 μg/ml streptomycin. Subcultures were performed three times per one week, each being at less than 80% confluence. At the previous day before treating test compounds, the cells were collected using 0.5% trypsin/EDTA and then diluted with a DMEM supplemented with 1% FBS, 25 mM HEPES, and 0.1 mM non-essential amino acids into 3.125×10^5 cells/ml. 32 μl of the diluted cells were added into 384-well plate (10^4 cells per well) and then incubated overnight. After the overnight culture, 8 μl of the medium having 1% of DMSO was added into the cell-free control well and the non-stimulating control well, respectively. 8 μl of the respective test compound dilutions (which had been prepared by diluting by 100-times with the medium as mentioned in the above) having 1% of DMSO were added to the respective remaining wells. After being cultured in the incubator for 5 hours, the wells of the 384-plate were treated with the substrate solution (8 μl per well) prepared according to the vendor's instruction (i.e., Invitrogen's instruction), and then incubated in the dark room for additional two hours. Agonistic activities on 5-HT4 receptor were evaluated, on the basis of fluorescence values of the cleavage-products by beta-lactamase. After exciting to 410 nm of wavelength using a fluorescence detector (Genios Pro), we measured the fluorescence values at two emission wavelengths (first wavelength: 465 nm, second wavelength: 535 nm). Data were analyzed on the basis of the ratio of fluorescence intensities of each well at the respective wavelengths. Each EC50 value was calculated by non-linear regression analysis using the “GraphPad Prism” program, based on the activities according to 8-different concentrations of the test compounds.

T1 sequence (Q13639 1-387 isoform Q13639-2): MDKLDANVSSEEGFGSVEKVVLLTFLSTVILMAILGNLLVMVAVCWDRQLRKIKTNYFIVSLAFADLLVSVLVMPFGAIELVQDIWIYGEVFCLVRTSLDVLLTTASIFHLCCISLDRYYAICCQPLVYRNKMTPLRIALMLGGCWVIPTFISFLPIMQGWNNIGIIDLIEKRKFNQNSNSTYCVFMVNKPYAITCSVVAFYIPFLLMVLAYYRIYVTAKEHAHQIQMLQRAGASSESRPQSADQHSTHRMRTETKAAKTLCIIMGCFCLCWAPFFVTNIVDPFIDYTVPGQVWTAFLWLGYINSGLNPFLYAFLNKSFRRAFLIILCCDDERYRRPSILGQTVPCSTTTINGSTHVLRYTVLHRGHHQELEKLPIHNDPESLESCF

Compound	EC50 [nM]
CCCc1cc(N2CCC(NCC)C2)nc(Nc2ccc(F)cc2)n1 (stereo not shown) [Example 13, 4-[3-(ethylamino)pyrrolidin-1-yl]-N-(4-fluorophenyl)-6-propylpyrimidin-2-amine]	0.12
CCCc1cc(N2CC[C@H](NC(C)=O)C2)nc(Nc2ccc(F)cc2)n1 [Example 17, (S)-N-{1-[2-(4-fluorophenylamino)-6-propylpyrimidin-4-yl]pyrrolidin-3-yl}acetamide]	0.35
CCCc1cc(N2CC[C@H](NCC)C2)nc(Nc2ccc(F)cc2)n1 [Example 18, (S)-4-[3-(ethylamino)pyrrolidin-1-yl]-N-(4-fluorophenyl)-6-propylpyrimidin-2-amine]	0.14
CCCc1cc(N2CC[C@H](NC)C2)nc(Nc2ccc(F)cc2)n1 [Example 22, (S)-N-(4-fluorophenyl)-4-[3-(methylamino)pyrrolidin-1-yl]-6-propylpyrimidin-2-amine]	0.33
CCCc1cc(N2CCC[C@H]2COC)nc(Nc2ccc(F)c([N+](=O)[O-])c2)n1 [Example 31, (S)-N-(4-fluoro-3-nitrophenyl)-4-[2-(methoxymethyl)pyrrolidin-1-yl]-6-propylpyrimidin-2-amine]	0.13
CCCc1cc(N2CCC[C@H]2COC)nc(Nc2cccc([N+](=O)[O-])c2)n1 [Example 32, (S)-4-[2-(methoxymethyl)pyrrolidin-1-yl]-N-(3-nitrophenyl)-6-propylpyrimidin-2-amine]	0.23
CCCc1cc(N2CCC[C@H]2COC)nc(Nc2ccc(Cl)c([N+](=O)[O-])c2)n1 [Example 33, (S)-N-(4-chloro-3-nitrophenyl)-4-[2-(methoxymethyl)pyrrolidin-1-yl]-6-propyl pyrimidin-2-amine]	0.059
CCCc1cc(N2CCC[C@H]2COC)nc(Nc2cccc(C(F)(F)F)c2)n1 [Example 36, (S)-4-[2-(methoxymethyl)pyrrolidin-1-yl]-6-propyl-N-[3-(trifluoromethyl)phenyl]pyrimidin-2-amine]	0.243
CCCc1cc(N2CCC[C@H]2COC)nc(Nc2ccc(C)c([N+](=O)[O-])c2)n1 [Example 40, (S)-4-[2-(methoxymethyl)pyrrolidin-1-yl]-N-(4-methyl-3-nitrophenyl)-6-propylpyrimidin-2-amine]	0.03
CCCc1cc(N2CCC[C@H]2COC)nc(Nc2ccc(F)c(C(F)(F)F)c2)n1 [Example 41, (S)-N-[4-fluoro-3-(trifluoromethyl)phenyl]-4-[2-(methoxymethyl)pyrrolidin-1-yl]-6-propylpyrimidin-2-amine]	0.15
CCCc1cc(N2CCC[C@H]2COC)nc(Nc2ccc(N)c(C(F)(F)F)c2)n1 [Example 42, (S)-N^1-{4-[2-(methoxymethyl)pyrrolidin-1-yl]-6-propylpyrimidin-2-yl}-3-(trifluoromethyl)benzene-1,4-diamine]	0.033
CCCc1cc(N2CCC[C@H]2COC)nc(Nc2ccc(F)c(C#N)c2)n1 [Example 43, (S)-2-fluoro-5-{4-[2-(methoxymethyl)pyrrolidin-1-yl]-6-propylpyrimidin-2-ylamino}benzonitrile]	0.178
CCCc1cc(N2CCC[C@H]2COC)nc(Nc2ccc(C)c(C#N)c2)n1 [Example 44, (S)-5-{4-[2-(methoxymethyl)pyrrolidin-1-yl]-6-propylpyrimidin-2-ylamino}-2-methylbenzonitrile]	0.022
CCCc1cc(N2CCC[C@H]2COC)nc(Nc2ccc(N)c(C#N)c2)n1 [Example 45, (S)-2-amino-5-{4-[2-(methoxymethyl)pyrrolidin-1-yl]-6-propylpyrimidin-2-ylamino}benzonitrile]	0.036
CCCc1cc(N2CCC[C@H]2COC)nc(Nc2ccc(N)c([N+](=O)[O-])c2)n1 [Example 46, (S)-N^1-{4-[2-(methoxymethyl)pyrrolidin-1-yl]-6-propylpyrimidin-2-yl}-3-nitrobenzene-1,4-diamine]	0.0097
CCCc1cc(N2CC[C@H](NC(=O)CCN3CCCCC3)C2)nc(Nc2cccc(C#N)c2)n1 [Example 63, (S)-N-{1-[2-(3-cyanophenylamino)-6-propylpyrimidin-4-yl]pyrrolidin-3-yl}-3-(piperidin-1-yl)propanamide]	0.13

Now from value to compound:

EC50 [nM]	Compound
0.16	CCCc1cc(N2CCC[C@H]2COC)nc(Nc2cccc(C#N)c2)n1 [Example 34, (S)-3-{4-[2-(methoxymethyl)pyrrolidin-1-yl]-6-propylpyrimidin-2-ylamino}benzonitrile]
0.38	CCCc1cc(N2CC[C@H](N)C2)nc(Nc2ccc(F)cc2)n1 [Example 47, (S)-4-(3-aminopyrrolidin-1-yl)-N-(4-fluorophenyl)-6-propylpyrimidin-2-amine dihydrochloride]
0.012	CCCc1cc(N2CC[C@H](NC)C2)nc(Nc2cccc(C#N)c2)n1 [Example 50, (S)-3-{4-[3-(methylamino)pyrrolidin-1-yl]-6-propylpyrimidin-2-ylamino}benzonitrile]
0.33	CCCc1cc(N2CC[C@H](O)C2)nc(Nc2cccc(C#N)c2)n1 [Example 52, (S)-3-[4-(3-hydroxypyrrolidin-1-yl)-6-propylpyrimidin-2-ylamino]benzonitrile]
0.098	CCCc1cc(N2CCC[C@H]2C)nc(Nc2cccc(C#N)c2)n1 [Example 53, (R)-3-[4-(2-methylpyrrolidin-1-yl)-6-propylpyrimidin-2-ylamino]benzonitrile]
0.032	CCCc1cc(N2CC[C@H](NC(C)=O)C2)nc(Nc2cccc(C#N)c2)n1 [Example 54, (S)-N-{1-[2-(3-cyanophenylamino)-6-propylpyrimidin-4-yl]pyrrolidin-3-yl}acetamide]
0.016	CCCc1cc(N2CC[C@H](NCC)C2)nc(Nc2cccc(C#N)c2)n1 [Example 55, (S)-3-{4-[3-(ethylamino)pyrrolidin-1-yl]-6-propylpyrimidin-2-ylamino}benzonitrile]
0.312	CCCc1cc(N2CC[C@H](CNC(=O)OC(C)(C)C)C2)nc(Nc2cccc(C#N)c2)n1 [Example 56, (R)-tert-butyl{1-[2-(3-cyanophenylamino)-6-propylpyrimidin-4-yl]pyrrolidin-3-yl}methylcarbamate]
0.389	CCCc1cc(N2CC[C@@H](O)C2)nc(Nc2cccc(C#N)c2)n1 [Example 57, (R)-3-[4-(3-hydroxypyrrolidin-1-yl)-6-propylpyrimidin-2-ylamino]benzonitrile]
0.028	CCCc1cc(N2CCC(NC)C2)nc(Nc2cccc(C#N)c2)n1 (stereo not shown) [Example 59, 3-{4-[3-(methylamino)pyrrolidin-1-yl]-6-propylpyrimidin-2-ylamino}benzonitrile dihydrochloride]
0.047	CCCc1cc(N2CC[C@H](N)C2)nc(Nc2cccc(C#N)c2)n1 [Example 60, (S)-3-[4-(3-aminopyrrolidin-1-yl)-6-propylpyrimidin-2-ylamino]benzonitrile dihydrochloride]
0.15	CCCC(=O)N[C@H]1CCN(c2cc(CCC)nc(Nc3cccc(C#N)c3)n2)C1 [Example 61, (S)-N-{1-[2-(3-cyanophenylamino)-6-propylpyrimidin-4-yl]pyrrolidin-3-yl}butyramide]
0.36	CCCc1cc(N2CC[C@H](NC(=O)C3CCCC3)C2)nc(Nc2cccc(C#N)c2)n1 [Example 62, (S)-N-{1-[2-(3-cyanophenylamino)-6-propylpyrimidin-4-yl]pyrrolidin-3-yl}cyclopentanecarboxamide]
0.1	CCCc1cc(N2CC[C@H](NC(=O)Cc3ccccc3)C2)nc(Nc2cccc(C#N)c2)n1 [Example 66, (S)-N-{1-[2-(3-cyanophenylamino)-6-propylpyrimidin-4-yl]pyrrolidin-3-yl}-2-phenylacetamide]
0.19	CCCc1cc(N2CC[C@H](NC(=O)Cc3ccc(F)cc3)C2)nc(Nc2cccc(C#N)c2)n1 [Example 67, (S)-N-{1-[2-(3-cyanophenylamino)-6-propylpyrimidin-4-yl]pyrrolidin-3-yl}-2-(4-fluorophenyl)acetamide]
0.25	CCCc1cc(N2CC[C@H](NC(=O)CN3CCCCC3)C2)nc(Nc2cccc(C#N)c2)n1 [Example 71, (S)-N-{1-[2-(3-cyanophenylamino)-6-propylpyrimidin-4-yl]pyrrolidin-3-yl}-2-(piperidin-1-yl)acetamide]
0.27	CCCc1cc(N2CC[C@H](NC(=O)Cc3ccc(N)cc3)C2)nc(Nc2cccc(C#N)c2)n1 [Example 73, (S)-2-(4-aminophenyl)-N-{1-[2-(3-cyanophenylamino)-6-propylpyrimidin-4-yl]pyrrolidin-3-yl}acetamide]
0.22	CCCc1cc(N2CC[C@H](NC(=O)COC)C2)nc(Nc2cccc(C#N)c2)n1 [Example 75, (S)-N-{1-[2-(3-cyanophenylamino)-6-propylpyrimidin-4-yl]pyrrolidin-3-yl}-2-methoxyacetamide]
